PMC12977544, “Phenotypic high-throughput screening identifies modulators of gut microbial choline metabolism” (mBio, 2026)
In brackets after ≈: the same amount, converted by molar mass.

Assays:
[1] = system: cut gene cluster expression in E. coli MS 200-1; assay: Transcription of the cut gene cluster after choline induction (Nanostring nCounter); conditions: 10 µM, NCE glycerol, 1 mM choline induction, 1.5 h
[2] = biological target: T1, purified CutC (choline trimethylamine-lyase) (Oleidesulfovibrio alaskensis, UniProt Q30W70); assay: In vitro CutC activity assay coupled to YADH/NADH (absorbance 340 nm); type: biochemical, Desulfovibrio desulfuricans G20; conditions: 5 nM CutC, 200 µM choline, 20°C, anaerobic
T1 construct: made in house
Method: To investigate if our compounds were inhibiting CutC directly, we tested their activity toward the purified enzyme. The activity of CutC was determined using a coupled enzyme assay, where the acetaldehyde product from the cleavage of choline to TMA is reduced to ethanol by yeast alcohol dehydrogenase (YADH) using nicotinamide adenine dinucleotide (NADH) as a cofactor. The consumption of NADH results in a change in absorption at 340 nm, and this rate of change of absorption was used to calculate the initial rates of reaction of CutC in the presence of varying concentrations of inhibitors ([14], [65]).
CutC and CutD enzymes from Desulfovibrio desulfuricans G20 were purified, CutC was activated by incubation with CutD, and the amount of glycyl radical installation was quantified as previously described ([15]). The IC50 of compounds was determined in an in vitro CutC activity assay, where CutC activity is coupled to the NADH-dependent enzymatic reduction of acetaldehyde by YADH ([15]). Briefly, assays were conducted in an anaerobic chamber (MBraun) under N2 atmosphere at 20°C. In 50 mM potassium phosphate buffer (pH 8.0, 50 mM KCl), 40 µM of CutD and 150 µM of sodium dithionite were incubated for 20 min before the addition of 200 µM of SAM and 20 µM of CutC monomer. The mixture was incubated for 1 h to activate the glycyl radical enzyme, after which the activated CutC mixture was diluted […] in 50 mM potassium phosphate buffer (pH 8.0, 50 mM KCl). A master mix containing 200 µM NADH, 0.4 µM YADH (Sigma), and the diluted CutC mixture (5 nM final concentration in assay) was prepared and aliquoted into 96-well plates (180 µL per well). Ten microliters of inhibitor or DMSO vehicle was added, followed by 10 µL of aqueous choline chloride solution (final concentration 200 µM). Absorbance was measured at 340 nm immediately after addition of all assay components, with measurements taken every 20 s for 10 min. Initial rates were calculated from absorbance measurements and fitted to Michaelis–Menten equation using nonlinear regression in GraphPad Prism 10 (v. 10.4.0). Background activity was subtracted using no substrate controls, and initial rates for each inhibitor concentration were normalized to no inhibitor controls. IC50 values were obtained by plotting normalized activity values against the logarithm of inhibitor concentration and fitting to a nonlinear regression model in GraphPad Prism 10 (v. 10.4.0).

E. coli MS 200-1 [3] = assay: Growth inhibition of E. coli cultures in choline- and glycerol-containing minimal media; type: cell-based, Escherichia coli MS 200-1
Method: To validate the potential hits from the HTS, we tested the 178 compounds for inhibition of growth of E. coli MS 200-1 in glycerol minimal media at 30 µg/mL, following up with those without activity. […]. We then determined EC50 values for inhibition of TMA production from choline by bacterial cultures incubated with [trimethyl-d9]choline in phosphate-buffered saline. Of the 178 compounds tested in both growth and TMA inhibition assays, 20 inhibited TMA generation by E. coli MS 200-1 without growth-inhibitory effects in glycerol minimal medium.
NCE media was adapted based on the “no carbon E” media as previously described ([14]), and contains 29 mM potassium phosphate monobasic, 29 mM potassium phosphate dibasic, 17 mM ammonium sodium phosphate dibasic, 40 mM sodium fumarate dibasic, 0.1% (wt/vol) casamino acids, and either 20 mM choline chloride or 3 g/L glycerol. This mixture was supplemented with 1 mM magnesium sulfate, 1% ATCC vitamin supplement, and 1% ATCC trace mineral supplement.

[4] = system: choline transport into ∆cutC E. coli MS 200-1 cells; assay: [14C]-choline uptake; type: cell-based, Escherichia coli MS 200-1 ∆cutC; conditions: 10 µM
Method: The ∆cutC strain of E. coli was used in this assay to prevent the formation of volatile radioactive TMA. When cells were grown aerobically, incubation with compound 42 increased choline uptake by 15 times compared to vehicle treatment (Fig. S2B).
E. coli MS 200-1 ∆cutC was grown either aerobically or anaerobically in LB medium supplemented with 1 mM choline chloride. Cells were pelleted and resuspended in fresh PBS after overnight growth to OD600 of 1 and aliquoted into microcentrifuge tubes. […] 5 µM [^14C] choline was added to the cells and left to incubate for 15 mins aerobically. At the end of the incubation period, cells were washed with PBS three times by centrifugation at 3,000 × g for 5 min and resuspended in equal volume of PBS. The resulting cell resuspension in PBS was transferred to a scintillation vial, where 10 mL of liquid scintillation cocktail was added and mixed. Radioactivity was counted using a Beckman Coulter LS6000 liquid scintillation counter for 1 min per sample.

E. coli MS 200-1 [5] = assay: TMA inhibition in bacterial whole cells (LC–MS/MS of d9-TMA from d9-choline); type: cell-based, Escherichia coli MS 200-1; conditions: 1 mM d9-choline in PBS, 75 min, 37°C, anaerobic
Method: (§1) For TMA inhibition assays, E. coli and P. mirabilis were grown in NCE medium supplemented with 20 mM choline chloride, A. hydrogenalis was grown in MEGA medium supplemented with 3 mM choline chloride, and C. sporogenes was grown in BHI medium supplemented with 20 mM of choline chloride to induce expression of the cut gene cluster. For MIC assays, all bacteria strains were grown in MEGA medium.
(§2) Compounds were stored as 10 mM DMSO stocks at –20°C and diluted in DMSO to prepare varying concentrations of inhibitors for testing. Bacteria were grown anaerobically overnight in media supplemented with choline as described above. Cells were pelleted and resuspended in PBS, and d9-choline chloride was added to a final concentration of 1 mM. The final OD600 of the PBS cell resuspensions is as follows: 0.4 (E. coli), 0.15–0.2 (P. mirabilis), 0.2 (C. sporogenes), and 0.4 (A. hydrogenalis). The resuspended cells were added to 96-well plates containing inhibitors (final concentration of 1% DMSO, with final inhibitor concentrations ranging between 0 and 325 µM). The plates were sealed and incubated for 75 min (or 90 min for P. mirabilis) at 37°C. Following incubation, the plates were removed from the anaerobic chamber and analyzed immediately or kept at –20°C until LC–MS/MS analysis. Each inhibitor concentration was tested in triplicate. EC50 values were calculated with GraphPad Prism by fitting the log(inhibitor) vs response—Variable slope (four-parameter) model for non-linear regression.
(§3) Samples were kept frozen until analysis and kept cold on ice during handling due to the volatility of TMA. Bacterial cell resuspensions in PBS were diluted 100-fold in LCMS-grade acetonitrile with 0.1% formic acid to lyse cells, precipitate proteins, and extract metabolites. Samples were centrifuged at 4,000 rpm for 10 min at 4°C to pellet proteins. The supernatants were then further diluted 20-fold in LCMS-grade acetonitrile with 0.1% formic acid, and the resulting solution was analyzed by LC–MS/MS.
(§4) LC–MS/MS analysis was performed on an Agilent 1290/6470 Triple Quadrupole LC–MS instrument (Agilent Technologies) using electrospray ionization. The mass spectrometer was operated in multiple reaction monitoring (MRM) mode with positive ionization monitoring. The precursor–product ion pairs used in MRM mode were as follows: m/z 69.1m/z → 49.1 (d9-TMA) and m/z 113.2 m/z → 69.1 (d9-choline). The capillary voltage was set to 4.0 kV, and the fragmentor voltage was set to 30 V (d9-TMA) and 115 V (d9-choline). The collision energy for the precursor–product ion pairs was set to 29 V (d9-TMA) and 21 V (d9-choline). MS^1 resolution was set to wide and MS^2 resolution to unit. The drying gas temperature was maintained at 250°C, with a flow rate of 11 L/min and a nebulizer pressure of 45 psi. The time filter width used was 0.07 min. The injection volume of all samples was 1 μL. Samples were injected onto InfinityLab Poroshell 120 (Agilent) HILIC columns (2.7 μm, 100 mm × 2.1 mm, 100 Å) preceded by InfinityLab Poroshell 120 HILIC guard columns (2.1 mm, 1.9µm UHPLC guard). The LC conditions on the binary pump were as follows: a gradient of 5–35% A increasing over 1.95 min (1.2 mL/min), a gradient of 35–5% A decreasing over 0.05 min (1.6 mL/min), and held at 5% A for 0.5 min (2 mL/min). […] Solvent A was 10 mM ammonium formate with 0.1% formic acid, and solvent B was acetonitrile with 0.1% formic acid. Data analysis was performed with Mass Hunter Workstation Data Acquisition and Qualitative Analysis software (Agilent Technologies).

[6] = system: Clostridium sporogenes ATCC 15579; assay: as above; type: cell-based; conditions: 1 mM d9-choline in PBS, 75 min, 37°C, anaerobic
Method: as §1, §2, §3, §4

[7] = system: panel of commensal bacterial strains; assay: MIC against panel of nine gut commensal bacteria; conditions: of 9 bacterial strains tested
E. coli MS 200-1 [8] = assay: MIC in MEGA medium; type: cell-based, Escherichia coli MS 200-1; conditions: anaerobic, 37°C, 24 h, up to 200 µM
Method: as §1

[9] = system: Proteus mirabilis ATCC 29906; assay: MIC in MEGA medium; type: cell-based; conditions: anaerobic, 37°C, 24 h, up to 200 µM; read-out: MIC in MEGA medium, P. mirabilis
Method: as §1

[10] = system: Bacteroides caccae ATCC 43185; assay: MIC in MEGA medium; type: cell-based; conditions: anaerobic, 37°C, 24 h, up to 200 µM; read-out: MIC in MEGA medium, B. caccae
Method: as §1

[11] = system: Anaerococcus hydrogenalis DSM 7454; assay: MIC in MEGA medium; type: cell-based; conditions: anaerobic, 37°C, 24 h, up to 200 µM
Method: as §1

[12] = system: Bacteroides thetaiotaomicron VPI-5482; assay: MIC in MEGA medium; type: cell-based; conditions: anaerobic, 37°C, 24 h, up to 200 µM; read-out: MIC in MEGA medium, B. thetaiotaomicron
Method: as §1

[13] = system: Bacteroides ovatus ATCC 8483; assay: MIC in MEGA medium; type: cell-based; conditions: anaerobic, 37°C, 24 h, up to 200 µM; read-out: MIC in MEGA medium, B. ovatus
Method: as §1

[14] = system: Eubacterium rectale ATCC 33656; assay: MIC in MEGA medium; type: cell-based; conditions: anaerobic, 37°C, 24 h, up to 200 µM; read-out: MIC in MEGA medium, E. rectale
Method: as §1

[15] = system: Clostridium sporogenes ATCC 15579; assay: MIC in MEGA medium; type: cell-based; conditions: anaerobic, 37°C, 24 h, up to 200 µM
Method: as §1

[16] = system: Collinsella aerofaciens ATCC 25986; assay: MIC in MEGA medium; type: cell-based; conditions: anaerobic, 37°C, 24 h, up to 200 µM
Method: as §1

TMAO production in vivo = system: TMAO production in vivo; design: method as in PMID 30082863; conditions: cited from earlier work
choline transporters = system: choline transporters; design: method as in PMID 33271015; conditions: read-out: IC50 of choline transport in human cells that overexpress choline transporters; cited from earlier work
[17] = system: Hungatella hathewayi cultures; design: method as in PMID 31059309; conditions: cited from earlier work
[18] = system: high affinity choline transporter (HAChT), choline transport in rat synaptosomes; design: method as in PMID 2066974; conditions: cited from earlier work
[19] = cited from earlier work
[20] = system: Proteus mirabilis lysates; design: method as in PMID 30082863; conditions: read-out: IC50 against Proteus mirabilis lysates; cited from earlier work

T1 sequence (Q30W70 53-846): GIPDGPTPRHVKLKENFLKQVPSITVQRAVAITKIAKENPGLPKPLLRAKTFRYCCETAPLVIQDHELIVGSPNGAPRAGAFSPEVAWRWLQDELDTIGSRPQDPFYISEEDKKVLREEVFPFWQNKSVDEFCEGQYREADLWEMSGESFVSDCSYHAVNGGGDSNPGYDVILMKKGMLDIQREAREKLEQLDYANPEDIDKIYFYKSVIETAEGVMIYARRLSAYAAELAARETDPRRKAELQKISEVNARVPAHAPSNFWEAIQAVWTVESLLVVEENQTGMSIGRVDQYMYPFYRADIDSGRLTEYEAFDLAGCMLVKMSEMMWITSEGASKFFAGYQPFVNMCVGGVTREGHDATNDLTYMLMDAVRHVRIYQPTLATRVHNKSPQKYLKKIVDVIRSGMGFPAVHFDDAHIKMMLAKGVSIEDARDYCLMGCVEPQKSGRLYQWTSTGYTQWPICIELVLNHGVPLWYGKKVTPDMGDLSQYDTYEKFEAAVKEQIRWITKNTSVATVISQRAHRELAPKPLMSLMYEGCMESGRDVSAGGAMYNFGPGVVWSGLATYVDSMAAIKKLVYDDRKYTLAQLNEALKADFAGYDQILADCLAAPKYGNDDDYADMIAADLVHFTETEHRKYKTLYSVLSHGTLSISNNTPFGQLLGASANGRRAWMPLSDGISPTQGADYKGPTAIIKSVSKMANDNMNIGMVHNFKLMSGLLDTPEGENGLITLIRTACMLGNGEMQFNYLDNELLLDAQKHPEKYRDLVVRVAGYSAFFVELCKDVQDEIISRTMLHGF

Cc1ccc(-c2cc(C(=O)NCCCN3CCCCCC3)c(C)[nH]2)cc1C [Compound 42]
Effect on cut gene cluster expression vs DMSO control [1]: did not significantly change gene expression
IC50 [2]: 24 µM
Inhibition of E. coli growth on choline (E. coli MS 200-1 [3]; choline minimal medium, 7 h, 6: 125–500 µM, 42: 30–100 µM): dose-dependent
Effect on growth of E. coli MS 200-1 in glycerol medium (E. coli MS 200-1 [3]; glycerol NCE minimal medium): not observed in glycerol
Increase of choline uptake compared to vehicle ([4]; cells grown aerobically): 15 times
Increase of choline uptake compared to vehicle ([4]; cells grown anaerobically): 1.2 times

Cc1ccc(-c2cc(C(=O)NCCCN3CCC(C)CC3)c(C)n2Cc2ccccc2)cc1C [Compound 19]
EC50 (E. coli MS 200-1 [5]): 28 µM
EC50 [6]: 4 µM
Bacterial strains with growth inhibited (MIC < 200 µM) [7]: five out of 9
MIC (E. coli MS 200-1 [8]): > 200 µM
MIC [9]: > 200 µM
MIC [10]: > 200 µM
MIC [11]: 25 µM (≈ 11.4 µg/mL)
MIC [12]: 50 µM (≈ 22.9 µg/mL)
MIC [13]: 25 µM (≈ 11.4 µg/mL)
MIC [14]: 25 µM (≈ 11.4 µg/mL)
MIC [15]: > 200 µM
MIC [16]: 6.25 µM (≈ 2.86 µg/mL)

C[N+](C)(CF)CCO [FMC, fluoromethylcholine]
EC50 of inhibition of TMAO production in vivo (TMAO production in vivo): 3.4 mg/kg

C[N+](C)(CCO)CCCCCCOc1cccc(I)c1 [Compound 4]
IC50 (choline transporters): 0.044 µM
IC50 [17]: 15 µM

C[N+](C)(CI)CCO [IMC, Iodomethylcholine]
IC50 [18]: 0.49 µM
Concentration in mice cecum and colon samples ([19]; dosed at 100 mg/kg, after 24 h): around 6 mM
Level of inhibitor and its metabolite iodomethylbetaine in serum ([19]; mouse, in vivo): low micromolar levels
EC50 of inhibition of TMAO production in vivo (TMAO production in vivo): 45 mg/kg
IC50 [20]: 0.0015 µM
